Experimental data reported in patent publication US20150299143A1, “SUBSTITUTED TRIAZOLE AND IMIDAZOLE COMPOUNDS” (HOFFMANN-LA ROCHE INC., priority 2012, published 2015).
Read-outs that look alike come from different tables or passages of the source.

How the values were obtained:
[1] = test system: DSS-induced colitis model in mice; conditions: cited from earlier work
[2] = test system: Th1/17 differentiation, B cell effector functions and production of inflammatory cytokines (IL-6, TNF-α, IL-23); conditions: cited from earlier work
MRL/lpr lupus-prone mice = conditions: cited from earlier work
[3] = test system: mouse CAIA and CIA arthritis models; conditions: cited from earlier work
β 2c/2i (trypsin-like) = assay: Cell-Based Proteasome subunit activity/selectivity assay, β2c/2i, substrate (KQL)2Rh110; conditions: Ramos cells; substrate (KQL)2Rh110 (β2c/2i); highest concentration tested 20 μM
Summary of the method: (§1)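 Subunit activity in cultured cells read with subunit-selective fluorogenic Rh110 substrates: (LLE)2 for β1c, (PAL)2 for β1i, (KQL)2 for β2c/2i, (WLA)2 for β5c. Cells exposed to 4-fold serially diluted compound (top 20 μM) 30 min at 37 °C, then substrate 120 min at room temperature; fluorescence 500/519 nm.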

β 1c (caspase-like) = molecular target: T1, β 1c (caspase-like) (Homo sapiens, UniProt P28072+Q99436); assay: Cell-Based Proteasome subunit activity/selectivity assay, β1c, substrate (LLE)2Rh110
T1 construct: protease activity associated with the proteasome complex in cultured cells; endogenous in cells; host or cells: Ramos cells
Summary of the method: as §1

[4] = molecular target: T2, β5c (chymotrypsin-like activity) (Homo sapiens, UniProt P20618+P28074); assay: Cell-Based Proteasome subunit activity/selectivity assay, β5c, substrate (WLA)2Rh110
T2 construct: protease activity associated with the proteasome complex in cultured cells; endogenous in cells; host or cells: Ramos cells
Summary of the method: as §1

β 1i (caspase-like) = molecular target: T3, β 1i (caspase-like) (Homo sapiens, UniProt P28065+P40306); assay: Cell-Based Proteasome subunit activity/selectivity assay, β1i, substrate (PAL)2Rh110
T3 construct: protease activity associated with the proteasome complex in cultured cells; endogenous in cells; host or cells: Ramos cells
Summary of the method: as §1

[5] = molecular target: T4, β 5i (chymotrypsin-like activity) (Homo sapiens, UniProt P20618+P28062); assay: Cell-Based Proteasome subunit activity/selectivity assay, β5i, substrate (ANW)2Rh110; conditions: Ramos cells; substrate (ANW)2Rh110 (β5i); highest concentration tested 20 μM; read-out: Ic50:ramos:ac-(anw)2-r110
T4 construct: protease activity associated with the proteasome complex in cultured cells; endogenous in cells; host or cells: Ramos cells
Summary of the method: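 Cell-based fluorogenic assay measuring chymotrypsin-like β5i proteasome activity using the substrate (ANW)2Rh110. Cultured cells received 0.5 μl of 100× 4-fold serial diluted compounds or DMSO per well, were incubated 30 minutes at 37° C, then equilibrated 15 minutes at room temperature. After shaking one minute @ 700 rpm and 120 min room-temperature incubation, fluorescence was read at 500 nm excitation/519 nm emission on an Envision reader.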

[6] = Ramos cells, substrate (LLE)2Rh110 (β1c), highest concentration tested 20 μM, read-out: Ic50:ramos:rh110-(lle)2
[7] = Ramos cells, substrate (WLA)2Rh110 (β5c), highest concentration tested 20 μM, read-out: Ic50:ramos:rh110-(wla)2
[8] = Ramos cells, substrate (PAL)2Rh110 (β1i), highest concentration tested 20 μM, read-out: Ic50:ramos:rh110-(pal)2

IC50 (β 2c/2i (trypsin-like)) [µM] | IC50 (β 1c (caspase-like); [6]) [µM] | IC50 [4, 7] [µM] | IC50 (β 1i (caspase-like); [8]) [µM] | IC50 [5] [µM] | IC50 (β 1c (caspase-like)) [µM] | IC50 [4] [µM] | IC50 (β 1i (caspase-like)) [µM] | Structure (SMILES) | inflammation and tissue destruction [1] | block of Th1/17 differentiation, B cell effector functions and production of inflammatory cytokines (IL-6, TNF-α, IL-23) [2] | disease progression (MRL/lpr lupus-prone mice) | plasma cells numbers and levels of anti-dsDNA IgG (MRL/lpr lupus-prone mice) | disease score [3]
– | – | – | – | – | – | – | – | COc1ccc(C[C@H](NC(=O)[C@H](C)NC(=O)CN2CCOCC2)C(=O)N[C@@H](Cc2ccccc2)C(=O)[C@@]2(C)CO2)cc1 [PR-957] | reduced inflammation and tissue destruction | potently block | prevented disease progression | reduced plasma cells numbers and levels of anti-dsDNA IgG | significantly decrease disease score
≥ 20 | ≥ 20 | ≥ 20 | ≥ 20 | 1.89 | – | – | – | CCc1ccc(C(C#N)NC(=O)c2cn(CCNC(=O)c3cccc4c3OCC4)nn2)cc1 (centres unmarked) [Example 13, 1-{2-[(2,3-Dihydro-benzofuran-7-carbonyl)-amino]-ethyl}-1H-[1,2,3]triazole-4-carboxylic acid [cyano-(4-ethyl-phenyl)-methyl]-amide] | – | – | – | – | –
≥ 20 | ≥ 20 | 8.6 | ≥ 20 | 0.461 | – | – | – | COc1ccc(C(=O)NCCn2cc(C(=O)N[C@@H](Cc3ccccc3)C(=O)C(=O)NCc3ccccc3)nn2)c(OC)c1OC [Example 88, 1-[2-(2,3,4-Trimethoxy-benzoylamino)-ethyl]-1H-[1,2,3]triazole-4-carboxylic acid ((S)-1-benzyl-2-benzylcarbamoyl-2-oxo-ethyl)-amide] | – | – | – | – | –
≥ 20 | ≥ 20 | ≥ 20 | ≥ 20 | 0.585 | – | – | – | COc1ccc(C(=O)NCCn2cc(C(=O)NC(C#N)c3ccc4c(c3)OCO4)nn2)c(OC)c1OC (centres unmarked) [Example 53, 1-[2-(2,3,4-Trimethoxy-benzoylamino)-ethyl]-1H-[1,2,3]triazole-4-carboxylic acid (benzo[1,3]dioxol-5-yl-cyano-methyl)-amide] | – | – | – | – | –
≥ 20 | ≥ 20 | ≥ 20 | ≥ 20 | 0.017 | – | – | – | CCc1ccc(C(C#N)NC(=O)c2cn(CCNC(=O)c3ccc(C(F)(F)F)cc3F)nn2)cc1 (centres unmarked) [Example 38, 1-[2-(2-Fluoro-4-trifluoromethyl-benzoylamino)-ethyl]-1H-[1,2,3]triazole-4-carboxylic acid [cyano-(4-ethyl-phenyl)-methyl]-amide] | – | – | – | – | –
≥ 20 | ≥ 20 | 16.1 | ≥ 20 | 0.134 | – | – | – | CCc1ccc(C(C#N)NC(=O)c2cn(CCNC(=O)c3ccc(Cl)cc3F)nn2)cc1 (centres unmarked) [Example 31, 1-[2-(4-Chloro-2-fluoro-benzoylamino)-ethyl]-1H-[1,2,3]triazole-4-carboxylic acid [cyano-(4-ethyl-phenyl)-methyl]-amide] | – | – | – | – | –
≥ 20 | ≥ 20 | ≥ 20 | ≥ 20 | 0.404 | – | – | – | COc1ccc(C(=O)NCCn2cc(C(=O)NC(C#N)c3ccc(C)cc3)nn2)c(OC)c1OC (centres unmarked) [Example 62, 1-[2-(2,3,4-Trimethoxy-benzoylamino)-ethyl]-1H-[1,2,3]triazole-4-carboxylic acid (cyano-p-tolyl-methyl)-amide] | – | – | – | – | –
≥ 20 | ≥ 20 | ≥ 20 | ≥ 20 | 3.15 | – | – | – | CCc1ccc(C(C#N)NC(=O)c2cn(CCNC(=O)c3cc(S(C)(=O)=O)ccc3OC)nn2)cc1 (centres unmarked) [Example 42, 1-[2-(5-Methanesulfonyl-2-methoxy-benzoylamino)-ethyl]-1H-[1,2,3]triazole-4-carboxylic acid [cyano-(4-ethyl-phenyl)-methyl]-amide] | – | – | – | – | –
≥ 20 | ≥ 20 | ≥ 20 | ≥ 20 | 8.75 | – | – | – | COc1ccc(C(=O)CNC(=O)c2cn(CCNC(=O)c3ccc(OC)c(OC)c3OC)nn2)cc1 [Example 77, 1-[2-(2,3,4-Trimethoxy-benzoylamino)-ethyl]-1H-[1,2,3]triazole-4-carboxylic acid [2-(4-methoxy-phenyl)-2-oxo-ethyl]-amide] | – | – | – | – | –
≥ 20 | – | – | – | 6.49 | ≥ 20 | ≥ 20 | ≥ 20 | COc1ccc(C(=O)NCCn2cc(C(=O)NC(C#N)c3cccc4ccccc34)nn2)c(OC)c1OC (centres unmarked) [Example 57, 1-[2-(2,3,4-Trimethoxy-benzoylamino)-ethyl]-1H-[1,2,3]triazole-4-carboxylic acid (cyano-naphthalen-1-yl-methyl)-amide] | – | – | – | – | –
≥ 20 | ≥ 20 | ≥ 20 | ≥ 20 | 0.19 | – | – | – | CCc1ccc(C(C#N)NC(=O)c2cn(CCNC(=O)c3cc(Cl)ccc3Cl)nn2)cc1 (centres unmarked) [Example 14, 1-[2-(2,5-Dichloro-benzoylamino)-ethyl]-1H-[1,2,3]triazole-4-carboxylic acid [cyano-(4-ethyl-phenyl)-methyl]-amide] | – | – | – | – | –
≥ 20 | ≥ 20 | 5.49 | ≥ 20 | 0.491 | – | – | – | CCc1ccc(C(C#N)NC(=O)c2cn(CCNC(=O)c3ccc(OC)nc3OC)nn2)cc1 (centres unmarked) [Example 35, N-[2-(4-{[Cyano-(4-ethyl-phenyl)-methyl]-carbamoyl}-[1,2,3]triazol-1-yl)-ethyl]-2,6-dimethoxy-nicotinamide] | – | – | – | – | –
≥ 20 | ≥ 20 | ≥ 20 | ≥ 20 | 1.26 | – | – | – | CCc1ccc(C(C#N)NC(=O)c2cn(CCNC(=O)C3Cc4ccccc4C3)nn2)cc1 (centres unmarked) [Example 12, 1-{2-[(Indane-2-carbonyl)-amino]-ethyl}-1H-[1,2,3]triazole-4-carboxylic acid [cyano-(4-ethyl-phenyl)-methyl]-amide] | – | – | – | – | –
≥ 20 | ≥ 20 | ≥ 20 | ≥ 20 | 5.67 | – | – | – | COc1ccc(C(=O)NCCn2cc(C(=O)NC(C#N)c3ccccc3Br)nn2)c(OC)c1OC (centres unmarked) [Example 59, 1-[2-(2,3,4-Trimethoxy-benzoylamino)-ethyl]-1H-[1,2,3]triazole-4-carboxylic acid [(2-bromo-phenyl)-cyano-methyl]-amide] | – | – | – | – | –
≥ 20 | 9.68 | 8.31 | 10.1 | 0.127 | – | – | – | CCCc1ccc(C(C#N)NC(=O)c2cn(CCNC(=O)c3ccc(OC)c(OC)c3OC)nn2)cc1 (centres unmarked) [Example 64, 1-[2-(2,3,4-Trimethoxy-benzoylamino)-ethyl]-1H-[1,2,3]triazole-4-carboxylic acid [cyano-(4-propyl-phenyl)-methyl]-amide] | – | – | – | – | –
≥ 20 | 19.1 | 8.3 | ≥ 20 | 5.68 | – | – | – | COc1ccc(C(=O)NCCn2cc(C(=O)NC(C#N)c3ccc(OCc4ccccc4)cc3)nn2)c(OC)c1OC (centres unmarked) [Example 56, 1-[2-(2,3,4-Trimethoxy-benzoylamino)-ethyl]-1H-[1,2,3]triazole-4-carboxylic acid [(4-benzyloxy-phenyl)-cyano-methyl]-amide] | – | – | – | – | –
